Structures are written as SMILES. Where two headings read alike, the source gives them in different places.

One test deals with H1650. Nature of the test: Non Small Cell Lung Cancer proliferation assay (Alamar Blue reduction), H1650. The format is cell-based, human. Conditions: Homo sapiens. A digest of the protocol:
(§1)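 Viability after 48 hours of drug exposure at 37° C is scored by Alamar Blue reduction over a subsequent 48 hours, read at 530/590 nm. DMSO-only wells (1% final) define the high control.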
For orientation: Resazurin is reduced to fluorescent resorufin, in cell work by metabolically active cells.

For a further test, the system named is H2444. As to the kind of experiment: Dose response study (Alamar Blue), H2444. The format is cell-based. Conditions: Homo sapiens, NCI-H2444; H2444; 12 point doubling dilution 10 uM to 5 nM; 48 h treatment, alamar blue additional 48 h; read-out: IC50 H2444. The method, then:
(§2) Dose response studies against 34 compounds from the pyridazinone and phenylfuran-carboxamide class were conducted. […] In addition, Tarceva was included in these dose response studies.
(§3) The dose response studies were done with the following standard procedure. First, the cells were counted and dispensed at 250 cells/well into 384-well microplates with compound. The cells were incubated for 48 hours at 37 C to complete treatment, and then alamar blue was added for an additional 48 hours. Finally, alamar blue reduction was measured and the data was loaded into ORIS, our data screening acquisition platform.

The test system of a further test is A549. Nature of the test: Dose response study (Alamar Blue), A549. The format is cell-based. The conditions noted are these: Homo sapiens; A549; 12 point doubling dilution 10 uM to 5 nM; 48 h treatment, alamar blue additional 48 h; read-out: IC50 A549. As to the method: as §2, §3
A further test relates to H1734. Nature of the test: Non Small Cell Lung Cancer proliferation assay (Alamar Blue reduction), H1734. Conditions: Homo sapiens, NCI-H1734. The test is classed as cell-based, human. The method, then:
These cells have a doubling time of 1-2 days. All cell types are adherent and grow in colonies. The cells should be kept at a density between 50,000 cells/mL -500,000 cells/mL to provide for optimum growth and adequate nutrition. The cell line should be maintained at 37° C. in a humidified atmosphere with 5% CO2 in a sterile cell culture incubator.
Non Small Cell Lung Cancer Proliferation Assay.
(§4) High Controls for this assay are made by treating Non Small Cell Lung Cancer cells with 5 ul of 10% DMSO. [Final concentration in this assay is 1% DMSO].
Important Note: All compounds for testing in this assay should be done at the final concentration of 1% DMSO.
(§5) After addition, the cells are placed in cell culture incubator at 37° C. for 48 hours for complete treatment.
After drug treatment, cytotoxicity is measured by Alamar Blue reduction.
(§6) The cells are incubated for 48 hours at 37° C. to complete the Alamar Blue reduction.
(§7) The final step in the assay is to measure the amount of Alamar Blue reduction. […] The Alamar Blue fluorescence is measured at an excitation of 530 nm and emission of 590 nm.
For the NSCLC project, the cell based assay was screened against a small molecule library of approximately 200,000 compounds. The compound library is stored in our automated robotic freezer (Biophile) at −20° C. in 100% DMSO. Compound freeze and thaw cycles are kept to a minimum. […] This assay was performed on a fully automated linear track robotic platform (CRS F3 Robot System, Thermo Electron Corp., Ontario, Canada) utilizing several integrated peripherals for plate handling, liquid dispensing, and readout detection. […] The microplates are then placed at 37° C. for 48 hours to complete treatment of cells with compounds. Next, 5 ul of alamar blue was added using a liquid dispenser (Flexprop Precision Dispenser, Perkin Elmer, Mass., USA) and incubated for 48 hours at 37° C. The alamar blue prompt fluorescence was measured on Victor V (Victor^3 V, Perkin Elmer, Mass., USA) and output data files were loaded into ORIS (Oncology Research Informatics System, MSKCC, NY, USA), a screening data acquisition and analysis platform.
as §3

Another test has as its system H1118. Nature of the test: Non Small Cell Lung Cancer proliferation assay (Alamar Blue reduction), H1118. The test is classed as cell-based. The conditions noted are these: Homo sapiens. As to the method:
Non Small Cell Lung Cancer Proliferation Assay. To perform the assay, the Non Small Cell Lung Cancer lines are diluted in media and plated into 384 well microplates at a final density of 250 cells in […]. To ensure consistency and minimal pipetting error, the cells are plated using the Multidrop 384 with the following settings: Rocker Switch set at 384, Volume 45 and Column 24.
Low Controls for this assay are made by treating Non Small Cell Lung Cancer cells with 5 ul of staurosporine at 250 uM in 10% DMSO and 1% SDS. [Final concentration in this assay is 25 uM staurosporine in 1% DMSO and 0.1% SDS.]
as §4
The remaining wells of the 384 microplate may be treated with different compounds depending on the study. Important Note: All compounds for testing in this assay should be done at the final concentration of 1% DMSO.
as §5
After drug treatment, cytotoxicity is measured by Alamar Blue reduction. 5 μL of Alamar Blue is added to the 384 microplates using the Flexdrop.
as §6, §7
For the NSCLC project, the cell based assay was screened against a small molecule library of approximately 200,000 compounds. The compound library is stored in our automated robotic freezer (Biophile) at −20° C. in 100% DMSO. Compound freeze and thaw cycles are kept to a minimum. Compounds for use are diluted into the appropriate concentration and plated into 384 well microplates using our custom built low volume 384-well head tool (TPS 384, Apricot Designs Inc., CA, USA). This assay was performed on a fully automated linear track robotic platform (CRS F3 Robot System, Thermo Electron Corp., Ontario, Canada) utilizing several integrated peripherals for plate handling, liquid dispensing, and readout detection. First, non-small cell lung cancer cell lines are dispensed into 384 well microplates (Corning #3712 Tissue Culture Treated Plate, Corning, N.Y., USA) with 5 μL of test compounds at 100 uM in 10% DMSO for screening studies or […] in 10% DMSO to 50 nM in 10% DMSO for dose response studies. The microplates are then placed at 37° C. for 48 hours to complete treatment of cells with compounds. Next, 5 ul of alamar blue was added using a liquid dispenser (Flexprop Precision Dispenser, Perkin Elmer, Mass., USA) and incubated for 48 hours at 37° C. The alamar blue prompt fluorescence was measured on Victor V (Victor^3 V, Perkin Elmer, Mass., USA) and output data files were loaded into ORIS (Oncology Research Informatics System, MSKCC, NY, USA), a screening data acquisition and analysis platform.
as §3

A further test has as its system H2030. Nature of the test: Non Small Cell Lung Cancer proliferation assay (Alamar Blue reduction), H2030. The test is classed as cell-based, human. Conditions: Homo sapiens. The method in brief: as §1
The test system of a further test is H820. Nature of the test: Dose response study (Alamar Blue), H820. Conditions: Homo sapiens, NCI-H820; H820; 12 point doubling dilution 10 uM to 5 nM; 48 h treatment, alamar blue additional 48 h; read-out: IC50 H820. The test is classed as cell-based. The method, then:
as §2, §3

Where [1] appears, read: NCI-H1650, 48 h, H1650, 12 point doubling dilution 10 uM to 5 nM, 48 h treatment, alamar blue additional 48 h, read-out: IC50 H1650.
The mark [2] stands for this setting: NCI-H1650, dose response 10 M to 5 nM, IC50, read-out: Dose Response (uM) H1650.
Where [3] appears, read: H1734, 12 point doubling dilution 10 uM to 5 nM, 48 h treatment, alamar blue additional 48 h, read-out: IC50 H1734.
Setting [4] is: read-out: Dose Response (uM) H1734.
Setting [5] is: H1118, 12 point doubling dilution 10 uM to 5 nM, 48 h treatment, alamar blue additional 48 h, read-out: IC50 H1118.
[6] abbreviates: read-out: Dose Response (uM) H1118.
[7] abbreviates: NCI-H2030, 48 h, H2030, 12 point doubling dilution 10 uM to 5 nM, 48 h treatment, alamar blue additional 48 h, read-out: IC50 H2030.
Where [8] appears, read: NCI-H2030, dose response 10 M to 5 nM, IC50, read-out: Dose Response (uM) H2030.

For `Cc1ccc(-n2ncc(Cl)c(Cl)c2=O)cc1` [compound 257016], the IC50 with H1650 (setting [1]) was 2.49 µM; in the test with H1650 (setting [2]) it was 2.73 µM; in the test with H2444 it was 410 nM; with A549, 2630 nM; in the test on H1734 (setting [3]) it was 3.22 µM; with H1734 (setting [4]) it was 3.37 µM. Moreover, the IC50 worked out at 0.54 µM with H1118 (setting [5]); 0.38 µM in the test with H1118 (setting [6]); 0.51 µM in the test with H2030 (setting [7]); 0.65 µM with H2030 (setting [8]); 370 nM in the test with H820.

With `Cc1cccc(-n2ncc(Cl)c(Cl)c2=O)c1C` [compound 257018], the IC50 was found to be 1.69 µM in the test on H1650 (setting [1]); 2.42 µM in the test on H1650 (setting [2]); 850 nM in the test on H2444; 2270 nM in the test on A549; 2.51 µM with H1734 (setting [3]); 2.12 µM with H1734 (setting [4]). Besides, the IC50 turned out to be 0.54 µM in the test with H1118 (setting [5]); 0.44 µM in the test with H1118 (setting [6]); 0.9 µM with H2030 (setting [7]); 0.89 µM in the test on H2030 (setting [8]); 340 nM with H820.

Take `O=c1c(Br)c(Br)cnn1-c1ccccn1` [compound 267073]: the IC50 was 0.79 µM in the test on H1650 (setting [1]); 0.8 µM in the test on H1650 (setting [2]); 130 nM in the test on H2444; 310 nM in the test on A549; 1.23 µM with H1734 (setting [3]); 0.72 µM in the test on H1734 (setting [4]). In addition, the IC50 was found to be 0.1 µM with H1118 (setting [5]), 0.12 µM in the test on H2030 (setting [7]), 0.76 µM with H2030 (setting [8]) and 100 nM in the test with H820.

`O=c1c(Br)c(Br)cnn1-c1cccc(C(F)(F)F)c1` [compound 267072]: the IC50 with H1650 (setting [1]) was determined as 2.09 µM; in the test on H1650 (setting [2]), 0.54 µM; with H2444, 1050 nM; in the test with A549 it was 3420 nM; in the test with H1734 (setting [3]), 3.19 µM; in the test on H1734 (setting [4]), 0.51 µM. Also, the IC50 came to 1.21 µM in the test on H1118 (setting [5]), 0.85 µM in the test on H2030 (setting [7]) and 820 nM with H820.

Take `O=c1c(Cl)c(Cl)cnn1Cc1ccccc1` [compound 267069]: the IC50 in the test on H1650 (setting [1]) was over 10 µM; in the test on H1650 (setting [2]), over 10 µM; in the test on H2444, 4130 nM; in the test on A549, 7390 nM; with H1734 (setting [3]), over 10 µM; in the test on H1734 (setting [4]) it was 6.86 µM. In addition, the IC50 was found to be 3.21 µM in the test with H1118 (setting [5]), 4.01 µM with H2030 (setting [7]), 6.83 µM in the test with H2030 (setting [8]) and 2570 nM in the test with H820.

Consider `COCCOc1cccc(-n2ncc(Br)c(Br)c2=O)c1` [compound 267084], for which the IC50 came to 1.04 µM with H1650 (setting [1]); 1.51 µM in the test on H1650 (setting [2]); 230 nM in the test on H2444; 840 nM in the test with A549; 1.5 µM with H1734 (setting [3]); 1.63 µM with H1734 (setting [4]). Besides, the IC50 in the test on H1118 (setting [5]) amounted to 0.23 µM; in the test with H2030 (setting [7]), 0.22 µM; in the test with H2030 (setting [8]), 0.61 µM; in the test with H820, 180 nM.

As to `O=c1c(Cl)c(Cl)cnn1-c1cccc(C(F)(F)F)c1` [compound 176729], the IC50 in the test with H1650 (setting [1]) came to 0.8 µM; in the test with H1650 (setting [2]) it was 1.44 µM; with H2444, 210 nM; in the test on A549, 1190 nM; in the test on H1734 (setting [3]) it was 1.22 µM; in the test with H1734 (setting [4]) it was 0.61 µM. Further, the IC50 turned out to be 0.31 µM in the test on H1118 (setting [5]); 0.2 µM with H1118 (setting [6]); 0.32 µM with H2030 (setting [7]); 0.34 µM in the test with H2030 (setting [8]); 280 nM in the test with H820. Besides, the inhibition at 10 µM in the test with H1650 (NCI-H1650, primary screening, 10 μM compound in 1% DMSO (v/v), read-out: percentage inhibition H1650) is 100%; with H2030 (NCI-H2030, primary screening, 10 μM compound in 1% DMSO (v/v), read-out: percentage inhibition H2030) it was -3%.

`O=c1c(Cl)c(Cl)cnn1-c1ccccn1` [compound 267090]: the IC50 in the test on H1650 (setting [1]) is 1.42 µM; with H1650 (setting [2]), 1.29 µM; in the test on H2444 it was 220 nM; with A549, 540 nM; in the test with H1734 (setting [3]), 2.47 µM; with H1734 (setting [4]), 1.1 µM. Moreover, the IC50 in the test on H1118 (setting [5]) amounted to 0.15 µM; with H2030 (setting [7]), 0.17 µM; with H2030 (setting [8]), 0.41 µM; in the test on H820, 140 nM.

For `CCCCc1cccc(-n2ncc(Cl)c(Cl)c2=O)c1` [compound 267063], the IC50 in the test on H1650 (setting [1]) was over 10 µM; in the test with H1650 (setting [2]) it was 5.82 µM; in the test with A549 it was over 10000 nM; with H1734 (setting [3]), over 10 µM; in the test on H1734 (setting [4]) it was 3.25 µM; in the test on H1118 (setting [5]) it was 6.41 µM. Besides, the IC50 was 6.43 µM in the test with H2030 (setting [7]), 2.75 µM with H2030 (setting [8]) and 6240 nM in the test on H820.

A word on the inhibition: it is the relative decrease from the control value, in per cent.
